Experimental data as given in PubChem BioAssay (NCI).
Values joined by “and” are separate entries in the source; they are usually repeats but may differ in a detail not shown here. Equal entries are not always repeated.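 Cultured in 96-well plates, cells were exposed to test compound for 48 hours across five concentrations. GI50: concentration for 50% inhibition of growth. TGI: total growth inhibition.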

Tests used:
Test in all cases: NCI-60 cell line screen, 48 h
HCT-15 colon = system: HCT-15 colon
MALME-3M melanoma = system: MALME-3M melanoma
HOP-92 NSCLC = system: HOP-92 NSCLC
OVCAR-8 ovarian = system: OVCAR-8 ovarian
TK-10 renal = system: TK-10 renal
BT-549 breast = system: BT-549 breast
A549 NSCLC = system: A549 NSCLC
UACC-257 melanoma = system: UACC-257 melanoma
HOP-62 NSCLC = system: HOP-62 NSCLC
HCT-116 colon = system: HCT-116 colon
SF-539 CNS = system: SF-539 CNS
M14 melanoma = system: M14 melanoma
786-0 renal = system: 786-0 renal
NCI/ADR-RES ovarian = system: NCI/ADR-RES ovarian
PC-3 prostate = system: PC-3 prostate
NCI-H460 lung = system: NCI-H460 lung

Structure (SMILES)	TGI (HCT-15 colon) [µM]	TGI (MALME-3M melanoma) [µM]	TGI (HOP-92 NSCLC)	TGI (OVCAR-8 ovarian) [µM]	TGI (TK-10 renal) [µM]	TGI (BT-549 breast)	TGI (A549 NSCLC) [µM]	TGI (UACC-257 melanoma)	TGI (HOP-62 NSCLC)	TGI (HCT-116 colon) [µM]	TGI (SF-539 CNS) [µM]	TGI (M14 melanoma)	TGI (786-0 renal) [µM]	TGI (NCI/ADR-RES ovarian) [µM]	TGI (PC-3 prostate)	TGI (NCI-H460 lung) [µM]	GI50 (HOP-62 NSCLC)	GI50 (HCT-116 colon) [µM]	GI50 (BT-549 breast)	GI50 (PC-3 prostate)
CC1=C(C)SC(=C2Sc3c(n(C)c(=O)[nH]c3=O)S2)S1	> 100	> 100	> 100 µM	> 100	> 100	> 100 µM	> 100	> 100 µM	> 100 µM	> 100	> 100	> 100 µM	> 100	> 100	> 100 µM	> 100	–	–	–	–
NC(=S)SCCC(=O)O	> 100	> 100	> 100 µM	> 100	> 100	> 100 µM	> 100	> 100 µM	> 100 µM	> 100	> 100	> 100 µM	> 100	> 100	> 100 µM	> 100	–	–	–	–
COc1ccc(C)c2c1N[C@](C)([C@]1(C)Nc3c(OC)ccc(C)c3C1=O)C2=O	> 100	> 100	> 100 µM	> 100	–	> 100 µM	> 100	> 100 µM	> 100 µM	> 100	> 100	> 100 µM	> 100	> 100	> 100 µM	> 100	–	–	–	–
COc1cc(-c2c[nH]c3ccccc23)nc(-c2c[nH]c3ccccc23)n1	22.3	–	8.53 µM	19.3	20.6	38.4 µM	12.5	20.9 µM	21 µM	13.6	19.8	14.8 µM	4.67	59.6	9.06 µM	12.8	–	–	–	–
CCOC(=O)/C(C#N)=C(/NS(=O)(=O)c1cc(C)c(Cl)cc1[S-])[n+]1ccc(N(C)C)cc1	> 100	> 100	91.7 µM	> 100	> 100	> 100 µM	> 100	> 100 µM	> 100 µM	> 100	> 100	> 100 µM	> 100	> 100	> 100 µM	> 100	–	–	–	–
COC(C)(C)C(O)C(O)C[C@H](C)C1CC=C2C1(C)CCC1[C@@]3(C)CCC(OC(C)=O)C(C)(C)C3CC(OC3OC(COC(C)=O)C(O)C(O)C3O)[C@@]21C (some centres undefined)	> 10	> 10	> 10 µM	> 10	> 10	> 10 µM	> 10	> 10 µM	> 10 µM	> 10	> 10	> 10 µM	> 10	> 10	> 10 µM	> 10	–	–	–	–
CC(=O)O[C@H]1CC[C@H]2[C@@H]3CCc4cc(O)c(I)cc4[C@H]3CC[C@]12C	22.9	37	–	37.9	33.6	29.4 µM	29.5	30 µM	24 µM	29.9	29.7	27.3 µM	27.1	43.2	20 µM	26.9	11 µM	16	–	–
CCCCCCCC1c2cc3[nH]c(cc4nc(cc5[nH]c(cc(n2)[C@@]1(C)CC(=O)N(C)C)c(C)c5CCC(=O)O)C(CCC(=O)O)=C4C)cc3C (some centres undefined)	39.5	39	43.8 µM	–	79.3	28.6 µM	> 100	35.2 µM	35.4 µM	32.5	34.2	29.8 µM	83.1	43.1	64 µM	43.8	–	–	–	–
CC(=O)OCC1OC(n2c(C)c(N=Nc3ccc(C)cc3)c(C)c(C#N)c2=S)C(OC(C)=O)C(OC(C)=O)C1OC(C)=O (centres undefined)	–	> 100	34.2 µM	–	> 100	> 100 µM	> 100	> 100 µM	> 100 µM	> 100	> 100	> 100 µM	72.4	> 100	> 100 µM	> 100	–	–	–	–
O=C1CCC(=O)N1CNc1ccc2c(c1)Sc1ccccc1O2	> 100	> 100	56.7 µM	68.5	> 100	93.4 µM	> 100	> 100 µM	> 100 µM	45.7	34.7	99.2 µM	58.9	> 100	> 100 µM	–	–	–	–	–
CCCCCCNC(=O)c1cc(NCc2cc(OC)ccc2OC)ccc1O	57.3	55.9	31.7 µM	86.7	> 100	33.4 µM	> 100	45.7 µM	–	49.6	36.3	38.4 µM	75	48.1	45.7 µM	84.4	–	–	–	–
COC(=O)c1cc(NC2OCC(OC(C)=O)C(OC(C)=O)C2OC(C)=O)nc(SC)c1C(=O)OC (centres undefined)	> 100	–	> 100 µM	> 100	> 100	> 100 µM	> 100	> 100 µM	> 100 µM	> 100	> 100	> 100 µM	> 100	> 100	> 100 µM	> 100	–	–	–	–
CCOC(=O)C1C(=O)CC(C)(O)C(C(=O)OCC)C1c1ccc(N(C)C)cc1 (centres undefined)	> 100	> 100	> 100 µM	> 100	> 100	> 100 µM	> 100	> 100 µM	> 100 µM	> 100	–	–	> 100	> 100	> 100 µM	> 100	–	–	–	–
CC(C)(C)CN1[C@@H]2CCCC[C@H]2N(CC(C)(C)C)P1(=O)Cc1ccccc1	25	26.3	–	27.7	25	31.2 µM	24.1	25.6 µM	31.3 µM	22.6	31.6	26.3 µM	29.9	27.1	19.4 µM	28.1	–	–	–	–
N#Cc1c(C#N)c(-c2cccc([N+](=O)[O-])c2)n(-c2ccccc2)c1N	> 100	> 100	> 100 µM	> 100	> 100	> 100 µM	> 100	> 100 µM	> 100 µM	> 100	> 100	> 100 µM	> 100	> 100	> 100 µM	–	–	–	–	–
Cc1cc(Cl)nc(NC(=O)CSc2ccc(Cl)cc2)n1	> 100	> 100	> 100 µM	> 100	> 100	> 100 µM	> 100	> 100 µM	> 100 µM	> 100	–	> 100 µM	> 100	> 100	> 100 µM	> 100	–	–	–	–
CCOC(=O)c1sc2nc(SC)nc(Nc3ccc4c(c3)OCCCO4)c2c1N	> 100	80.7	> 100 µM	> 100	> 100	> 100 µM	> 100	> 100 µM	61.5 µM	> 100	> 100	> 100 µM	> 100	> 100	> 100 µM	–	–	–	–	–
O=C(OCc1ccccc1)N1CCNCCNCC1	> 100	–	> 100 µM	> 100	> 100	> 100 µM	> 100	> 100 µM	> 100 µM	> 100	> 100	> 100 µM	> 100	> 100	> 100 µM	> 100	–	–	–	–
CC(C)=CCNc1ncnc2c1ncn2CCC(=O)OC(C)(C)C	> 100	> 100	> 100 µM	> 100	> 100	> 100 µM	> 100	–	> 100 µM	> 100	> 100	> 100 µM	> 100	> 100	> 100 µM	> 100	–	–	–	–
CCOC(=O)CSc1nc(-c2ccc(OC)cc2)c(C#N)c(=O)[nH]1	> 100	–	> 100 µM	> 100	> 100	> 100 µM	> 100	> 100 µM	> 100 µM	> 100	> 100	> 100 µM	> 100	> 100	> 100 µM	> 100	–	–	–	–
CC1OC(OC2C(OC(=O)[C@]34CCC(C)(C)C[C@H]3C3=CC[C@@H]5[C@@]6(C)CC[C@H](OC7OC(C(=O)O)C(O)C(O)C7O)C(C)(C)[C@@H]6CC[C@@]5(C)[C@]3(C)CC4)OCC(O)C2O)C(O)C(O)C1OC1OCC(O)C(O)C1O (some centres undefined)	> 100	> 100	99.8 µM and 43.7 µM	> 100	–	> 100 µM and 37.3 µM	> 100	93.1 µM and > 100 µM	> 100 µM and 55.6 µM	> 100	–	56 µM and 35.6 µM	> 100	> 100	> 100 µM and 74.7 µM	> 100	> 100 µM and 25.5 µM	–	40 µM and 18.4 µM	66.9 µM and 25.2 µM
Cc1[nH]c2c(C)ccc(C)c2c1CC(=O)O	> 100	> 100	–	> 100	> 100	> 100 µM	> 100	> 100 µM	> 100 µM	> 100	> 100	> 100 µM	> 100	> 100	69.9 µM	> 100	–	–	–	–
COc1ccc(NC(=O)C(=O)C(CC2C(=O)NC(=S)NC2=O)C(=O)c2ccc3ccccc3c2)c([N+](=O)[O-])c1 (centres undefined)	> 100	–	> 100 µM	> 100	> 100	> 100 µM	> 100	> 100 µM	–	> 100	> 100	> 100 µM	> 100	> 100	> 100 µM	> 100	–	–	–	–
COC(=O)[C@@H]1O[C@]12C(CO[Si](C)(C)C(C)(C)C)OC(n1ccc(=O)[nH]c1=O)C2O[Si](C)(C)C(C)(C)C (some centres undefined)	> 100	–	88.1 µM	> 100	83.9	47.7 µM	> 100	57.5 µM	48 µM	> 100	38	30.7 µM	> 100	> 100	68.1 µM	> 100	–	–	–	–
CC(=O)C1(c2ccccc2)CCN(Cn2sc3nc(C)cc(C)c3c2=O)CC1	72.8	41.5	> 100 µM	74.6	36.1	> 100 µM	> 100	–	> 100 µM	52	50.9	71.6 µM	30.6	> 100	> 100 µM	34.1	–	–	–	–
CC(=O)O[C@H]1C(=O)[C@@]2(C)C(C(OC(=O)c3ccccc3)[C@]3(O)CC(OC(=O)C(O)C(NC(=O)c4ccccc4)c4ccc(F)cc4)C(C)=C1C3(C)C)[C@]1(OC(C)=O)CO[C@@H]1C[C@@H]2O (some centres undefined)	> 10	–	> 10 µM	> 10	> 10	> 10 µM	> 10	> 10 µM	> 10 µM	0.103	0.00307	> 7.03 µM	> 10	> 4.04	> 10 µM	> 10	–	–	–	–
COC(=O)c1cc(C#N)[nH]c1-c1ccsc1	> 100	> 100	> 100 µM	> 100	> 100	> 100 µM	> 100	> 100 µM	> 100 µM	> 100	–	> 100 µM	> 100	> 100	> 100 µM	–	–	–	–	–
CCOC(=O)c1ccc2c(c1)nc1n2C(c2c(F)cccc2F)SC1 (centres undefined)	> 100	–	> 100 µM	58.7	> 100	> 100 µM	> 100	> 100 µM	> 100 µM	34	53.1	> 100 µM	67.8	44.9	71.2 µM	> 100	–	–	–	–
